Reference: patent publication US20200237759A1, “DOSAGE REGIME AND METHOD FOR TREATING PULMONARY ARTERIAL HYPERTENSION” (Altavant Sciences GmbH, priority 2019, published 2020)

Tests used:
[1] = Part 1 SAD urine pharmacokinetics (urinary excretion, renal clearance); assay type: in vivo, human
Procedure: Renal clearance of KAR5417 was calculated from the area under the plasma time concentration curve (AUC0-96) for KAR5417 and the amount of KAR5417 recovered in urine (Table 21).

[2] = tested on: plasma 5-HIAA (a PD marker of 5-HT synthesis); assay: Part 2 MAD biomarker: plasma 5-HIAA change from Day 1; assay type: in vivo, human; conditions: Day 14
Source text: Biomarkers were to be evaluated in Part 2 by measuring concentrations of serotonin (5-hydroxytryptamine [5-HT]) in serum and 5-hydroxyindoleacetic acid (5-HIAA) in plasma and urine. As well, the relationship of biomarkers to PK parameters was to be evaluated.
The biomarker analysis was to be based on the Biomarker Population (all subjects with evaluable biomarker measurements at baseline [Day 1 predose] and at least one after dosing [Day 7 or Day 14]).
Biomarker data were to be collected only in Part 2. The following biomarkers were to be analyzed: • Serum 5-HT • Plasma 5-HIAA • Urine 5-HIAA/24 hours (as measured, adjusted, estimated, and per gram creatinine)
The a priori primary biomarker endpoint was to be the change in plasma 5-HIAA concentration on Day 14 from Day 1.
Linear regression was to be performed using biomarker changes, absolute and relative (%), from Day 1, at predose on Day 7 or Day 14 versus AUC0-24, Cmax, and Cmin in corresponding study days. The slopes and corresponding 95% confidence intervals (CIs) were to be tabulated.
Summary statistics (mean, standard deviation [SD], median, minimum [Min], and maximum [Max]) were to be tabulated for each biomarker, by Cohort, with absolute and relative (%) changes from Day 1 predose.
The values were to be tabulated with P values testing whether the difference of changes was equal to 0.
The biomarker portion of the study was conducted in Part 2 MAD using the Biomarker Population. The biomarkers evaluated were serum 5-HT and plasma 5-HIAA, as well as urine 5-HIAA/24 hours (as measured, adjusted, estimated, and per gram creatinine). Urinary 5-HIAA was determined by a validated (21 C.F.R. 58, GLP-compliant) method using liquid chromatographic separation and tandem mass spectrometry detection.
The Biomarker Population consisted of all subjects with evaluable baseline (Day 1 predose) and at least one postdose (Day 7 or Day 14) biomarker measurements.
Biomarker data were analyzed for each KAR5585 dose separately, for all KAR5585 doses pooled, and for all placebo subjects pooled. […]

clinical = conditions: human, plasma, oral, 100 mg
Procedure: Food effect was to be evaluated in Part 1, Period 2.
Part 2 (MAD): BID doses (separated by approximately 12 hours on Days 1 to 13) and a single AM dose on Day 14. One or more of the MAD Cohort could have been dosed once daily (QD).
(§1) Pharmacokinetic data were to be summarized descriptively.

[3] = Part 1 SAD plasma pharmacokinetics of KAR5585 and KAR5417 after a single oral dose of KAR5585 (fasting; fed food effect); conditions: for AUC0-inf Geometric Mean / AUC0-tau Geometric Mean / Cmax Geometric Mean: 400 mg KAR5585 single oral dose
Procedure: Food effect was to be evaluated in Part 1, Period 2. Part 2 was permitted to begin before Part 1 was completed and, in each part, the data from each dose Cohort were to be reviewed for safety before the next dose Cohort was enrolled.
Part 1 had 6 Cohorts of 12 subjects each (for a total of 72 subjects) and Part 2 had 4 Cohorts of 12 subjects each (for a total of 48 subjects). In Part 1, the 12 subjects in Cohort 3 (400 mg) were studied twice, once under fasting conditions (Period 1) and once under fed conditions (Period 2) for food-effect assessment.
as §1

[4] = KAR5585 700 mg single oral dose
[5] = 100 mg to 700 mg single dose, 7-fold increase in dose
[6] = 700 mg to 2000 mg single dose, 2.86-fold increase in dose
[7] = arithmetic mean, plasma KAR5417 after single oral 100 mg KAR5585, fasted, Cohort 1
[8] = arithmetic mean, plasma KAR5417 after single oral 700 mg KAR5585, fasted, Cohort 4
[9] = arithmetic mean, plasma KAR5417 after single oral 1200 mg KAR5585, fasted, Cohort 5
[10] = geometric mean, plasma KAR5417 after single oral 200 mg KAR5585, fasted, Cohort 2
[11] = geometric mean, plasma KAR5417 after single oral 400 mg KAR5585, fed, Cohort 3B
[12] = geometric mean, plasma KAR5417 after single oral 1200 mg KAR5585, fasted, Cohort 5
[13] = geometric mean, plasma KAR5417 after single oral 2000 mg KAR5585, fasted, Cohort 6

Q: For `Nc1nc(O[C@H](c2ccc(Cl)cc2-c2ccccc2)C(F)(F)F)cc(N2CCC3(CC2)CN[C@H](C(=O)O)C3)n1` [KAR5417, (S)-8-(2-amino-6-((R)-1-(5-chloro-[1,1′-biphenyl]-2-yl)-2,2,2-trifluoroeth-oxy)pyrimidin-4-yl)-2,8-diazaspiro[4.5]decane-3-carboxylic acid], which “highest amount excreted in urine, of the dose” value ([1]; 400 mg fed Cohort (Cohort 3B)) is on record?
A: The value was 0.331%.

Q: What about the “Plasma AUC0-96 Mean” value ([1]; KAR5585 100 mg single oral dose) of the same compound?
A: The value was 889 ng·h/mL.

Q: And the “Plasma AUC0-96 Mean” value ([1]; KAR5585 400 mg single oral dose, fasted)?
A: Its value is 3630 ng·h/mL.

Q: And the “Plasma AUC0-96 Mean” value ([1]; KAR5585 400 mg single oral dose, fed)?
A: The value was 6590 ng·h/mL.

Q: What about the “CLR Mean” value [1, 4] of the same compound?
A: The value was 191 mL/h.

Q: And the “Plasma AUC0-96 Mean” value [1, 4]?
A: The value was 5990 ng·h/mL.

Q: What about the “CLR Mean” value ([1]; KAR5585 1200 mg single oral dose) of the same compound?
A: Its value is 157 mL/h.

Q: What about the “correlation of absolute and relative changes from baseline in plasma 5-HIAA with AUC0-24, Cmax, C12 and AUC0-12” value [2] of the same compound?
A: Its value is “significantly correlated”.

Q: And the concentration at 24 h (clinical)?
A: Its concentration at 24 h is 19.7 ng/mL.

Q: What about the “increase in mean Cmax” value ([3]; 100 mg (Cohort 1) to 700 mg (Cohort 4), 7-fold increase in dose) of the same compound?
A: The value was 7.27 fold.

Q: What about the “increase in mean AUC0-24” value [3, 5] of the same compound?
A: The value was 6.3 fold.

Q: And the “increase in mean AUC0-inf” value [3, 5]?
A: Its value is 6.8 fold.

Q: What about the “exposure (AUC0-tau and AUC0-inf) under fed relative to fasting conditions” value ([3]; 400 mg KAR5585 single dose) of the same compound?
A: Its value is “approximately 2 fold”.

Q: What about the “increase in Cmax, fed relative to fasting” value ([3]; 400 mg KAR5585 single dose) of the same compound?
A: The value was 1.8 fold.

Q: And the “increase in mean AUC0-inf, fed relative to fasting” value ([3]; 400 mg KAR5585 single dose)?
A: The value was 1.8 fold.

Q: And the “peak exposure (Cmax) higher under fed relative to fasting conditions” value ([3]; 400 mg KAR5585 single dose)?
A: Its value is “approximately 1.87 fold”.

Q: What about the “peak mean concentrations higher under fed relative to fasting conditions” value ([3]; 400 mg KAR5585 single dose) of the same compound?
A: The value was “approximately 177%”.

Q: What about the tmax ([3]; 400 mg KAR5585 single dose, fasted) of the same compound?
A: Its tmax is 4 hour postdose.

Q: And the “increase in mean Cmax” value ([3]; 700 mg (Cohort 4) to 2000 mg (Cohort 6), 2.86-fold increase in dose)?
A: Its value is 1.38 fold.

Q: What about the “increase in AUC0-24” value [3, 6] of the same compound?
A: Its value is 1.7 fold.

Q: And the “increase in AUC0-inf” value [3, 6]?
A: The value was 1.81 fold.

Q: And the AUC0-inf Geometric Mean ([3]; Cohort 3A (Fasting))?
A: The AUC0-inf Geometric Mean was 3280 ng·h/mL.

Q: And the AUC0-tau Geometric Mean ([3]; Cohort 3A (Fasting))?
A: The AUC0-tau Geometric Mean was 3120 ng·h/mL.

Q: And the Cmax Geometric Mean ([3]; Cohort 3A (Fasting))?
A: Its Cmax Geometric Mean is 444 ng/mL.

Q: And the “Cmax Geometric LS Mean Ratio” value ([3]; Cohort 3B (Fed) versus Cohort 3A (Fasting), 400 mg KAR5585)?
A: Its value is 1.87.

Q: And the AUC0-inf Geometric Mean ([3]; Cohort 3B (Fed))?
A: The AUC0-inf Geometric Mean was 6630 ng·h/mL.

Q: And the AUC0-tau Geometric Mean ([3]; Cohort 3B (Fed))?
A: The AUC0-tau Geometric Mean was 6360 ng·h/mL.

Q: And the Cmax Geometric Mean ([3]; Cohort 3B (Fed))?
A: The Cmax Geometric Mean was 831 ng/mL.

Q: And the “time by which all subjects had measurable concentrations” value ([3]; Part 1 SAD)?
A: The value was no more than 0.25 hours postdose.

Q: And the “plasma concentrations relative to plasma concentrations of KAR5585” value ([3]; Part 1 SAD, fasting)?
A: The value was “approximately 10 fold”.

Q: And the AUC0-12 [3, 7]?
A: Its AUC0-12 is 704 ng·h/mL.

Q: And the “AUC0-∞” value [3, 7]?
A: The value was 886 ng·h/mL.

Q: And the t1/2 [3, 7]?
A: The t1/2 was 4.67 h.

Q: What about the AUC0-12 [3, 8] of the same compound?
A: Its AUC0-12 is 4350 ng·h/mL.

Q: And the AUC0-24 [3, 8]?
A: The AUC0-24 was 5310 ng·h/mL.

Q: And the AUC0-12 [3, 9]?
A: The AUC0-12 was 5350 ng·h/mL.

Q: And the Cmax [3, 9]?
A: The Cmax was 896 ng/mL.

Q: And the AUC0-12 ([3]; arithmetic mean, plasma KAR5417 after single oral 2000 mg KAR5585, fasted, Cohort 6)?
A: Its AUC0-12 is 6910 ng·h/mL.

Q: What about the AUC0-24 [3, 10] of the same compound?
A: The AUC0-24 was 940 ng·h/mL.

Q: What about the t1/2 [3, 10] of the same compound?
A: The t1/2 was 5.29 h.

Q: And the AUC0-12 [3, 11]?
A: The AUC0-12 was 4170 ng·h/mL.

Q: And the AUC0-24 [3, 11]?
A: The AUC0-24 was 5370 ng·h/mL.

Q: And the AUC0-tau [3, 11]?
A: The AUC0-tau was 6360 ng·h/mL.

Q: And the “AUC0-∞” value [3, 11]?
A: The value was 6630 ng·h/mL.

Q: What about the Cmax [3, 11] of the same compound?
A: Its Cmax is 831 ng/mL.

Q: What about the t1/2 [3, 11] of the same compound?
A: Its t1/2 is 19.8 h.

Q: What about the AUC0-12 ([3]; geometric mean, plasma KAR5417 after single oral 700 mg KAR5585, fasted, Cohort 4) of the same compound?
A: The AUC0-12 was 3050 ng·h/mL.

Q: And the AUC0-tau [3, 12]?
A: Its AUC0-tau is 6580 ng·h/mL.

Q: What about the “AUC0-∞” value [3, 12] of the same compound?
A: Its value is 6880 ng·h/mL.

Q: What about the Cmax [3, 12] of the same compound?
A: Its Cmax is 764 ng/mL.

Q: And the t1/2 [3, 12]?
A: The t1/2 was 14.0 h.

Q: What about the AUC0-12 [3, 13] of the same compound?
A: The AUC0-12 was 6550 ng·h/mL.

Q: And the Cmax [3, 13]?
A: Its Cmax is 1030 ng/mL.

Q: What about the t1/2 [3, 13] of the same compound?
A: Its t1/2 is 22.1 h.

Q: And the tmax ([3]; median, plasma KAR5417 after single oral 100 mg KAR5585, fasted, Cohort 1)?
A: The tmax was 4.00 h.

Q: What about the tmax ([3]; median, plasma KAR5417 after single oral 400 mg KAR5585, fed, Cohort 3B) of the same compound?
A: Its tmax is 4.00 h.

Q: And the tmax ([3]; median, plasma KAR5417 after single oral 700 mg KAR5585, fasted, Cohort 4)?
A: Its tmax is 4.00 h.

Q: And the “time up to which concentrations remained above the LLOQ” value ([3]; single 100 mg KAR5585, fasting)?
A: Its value is “up to 12 hours”.

Q: What about the “mean apparent terminal (elimination) half-life” value ([3]; single 100 mg dose of KAR5585) of the same compound?
A: Its value is 4.67 h.

Q: What about the “time up to which concentrations remained above the LLOQ” value ([3]; single 200 mg KAR5585, fasting) of the same compound?
A: Its value is no more than 24 h.

Q: And the “time up to which concentrations remained above the LLOQ” value ([3]; single 400 mg KAR5585, fasting)?
A: The value was no more than 36 h.

Q: And the “time up to which concentrations remained above the LLOQ” value ([3]; single 700 mg KAR5585, fasting)?
A: Its value is no more than 48 h.

Q: What about the “time up to which concentrations remained above the LLOQ” value ([3]; single 1200 mg KAR5585, fasting) of the same compound?
A: The value was no more than 48 h.

Q: What about the “time up to which concentrations remained above the LLOQ” value ([3]; single 2000 mg KAR5585, fasting) of the same compound?
A: Its value is no more than 72 h.

Q: What about the elimination half-life ([3]; single dose 400 mg KAR5585, Part 1 Cohort 3B) of the same compound?
A: The elimination half-life was 20.5 h.
